# Data published in PMC10135569, “Does Enhanced Structural Maturity of hiPSC-Cardiomyocytes Better for the Detection of Drug-Induced Cardiotoxicity?” (Biomolecules, 2023).
# Key:
# [1] = tested on: hiPSC-CMs (iCell2 Cardiomyocytes) 2D monolayers; assay: Membrane potential (action potential) recordings with FluoVolt voltage-sensitive dye on the CellOPTIQ platform; assay type: cell-based, human; settings: for activity at 0.01 µM / activity at 0.03 µM / activity at 0.1 µM / activity at 0.3 µM: Homo sapiens, Cardiomyocyte, 0.5 h, 30 min, delta over DMSO 0.1%
# Method in brief: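 iCell2 hiPSC-CM monolayers (50,000 cells/well on fibronectin or Matrix Plus, days 5–6) were loaded with FluoVolt (1:1000, 20 min, 37 °C) and imaged at 37 °C with 470 nm excitation and 510–560 nm emission sampled at 10 kHz. Spontaneous action potentials were recorded for 10 s at baseline and 30 min after drug, with one of four concentrations per well (n = 8).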
# [2] = tested on: hiPSC-CMs (iCell2 Cardiomyocytes) 2D monolayers; assay: Contractility measurements using video imaging (ContractilityTool / MUSCLEMOTION); assay type: cell-based, human; settings: for activity at 0.01 µM / activity at 0.03 µM / activity at 0.1 µM / activity at 0.3 µM: Homo sapiens, Cardiomyocyte, 0.5 h, 30 min, delta over DMSO 0.1%
# Method in brief: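 Monolayers on fibronectin or Matrix Plus coating, tested on days 5–6 in serum-free medium. Four concentrations, one per well, n = 8, with vehicle control.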
# [3] = 300 nM, both 2D systems, positive control
# [4] = FM monolayer, read-out: APD30 (%DD)
# [5] = FM monolayer, read-out: APD90 (%DD)
# [6] = FM monolayer, read-out: CL (%DD)
# [7] = FM monolayer, read-out: Trise (%DD)
# [8] = MM monolayer, read-out: APD30 (%DD)
# [9] = MM monolayer, read-out: APD90 (%DD)
# [10] = MM monolayer, read-out: CL (%DD)
# [11] = MM monolayer, read-out: Trise (%DD)
# [12] = FM monolayer, read-out: CtAmp (%DD)
# [13] = FM monolayer, read-out: CtD50 (%DD)
# [14] = MM monolayer, read-out: CtAmp (%DD)
# [15] = MM monolayer, read-out: CtD50 (%DD)
structure (smiles),measurement,setting,value
CC(C)NCC(O)c1ccc(O)c(O)c1 (stereo not shown) [Isoprenaline],effect on APD90,[1]; [3],decreased
same,effect on spontaneous beat rate,[1]; [3],increased
same,activity at 0.01 µM,[1]; [4],97 ± 2%
same,activity at 0.01 µM,[1]; [5],94 ± 1.9%
same,activity at 0.01 µM,[1]; [6],90 ± 1.4%
same,activity at 0.01 µM,[1]; [7],80 ± 7.3%
same,activity at 0.03 µM,[1]; [4],85 ± 1.7%
same,activity at 0.03 µM,[1]; [5],77 ± 0.6%
same,activity at 0.03 µM,[1]; [6],74 ± 0.6%
same,activity at 0.03 µM,[1]; [7],97 ± 8.6%
same,activity at 0.1 µM,[1]; [4],68 ± 0.8%
same,activity at 0.1 µM,[1]; [5],60 ± 1%
same,activity at 0.1 µM,[1]; [6],56 ± 0.6%
same,activity at 0.1 µM,[1]; [7],106 ± 4.5%
same,activity at 0.3 µM,[1]; [4],62 ± 1%
same,activity at 0.3 µM,[1]; [5],52 ± 0.5%
same,activity at 0.3 µM,[1]; [6],49 ± 0.6%
same,activity at 0.3 µM,[1]; [7],106 ± 8.1%
same,activity at 0.01 µM,[1]; [8],92 ± 0.8%
same,activity at 0.01 µM,[1]; [9],96 ± 0.8%
same,activity at 0.01 µM,[1]; [10],90 ± 0.9%
same,activity at 0.01 µM,[1]; [11],146 ± 13.3%
same,activity at 0.03 µM,[1]; [8],83 ± 0.9%
same,activity at 0.03 µM,[1]; [9],86 ± 1%
same,activity at 0.03 µM,[1]; [10],77 ± 0.6%
same,activity at 0.03 µM,[1]; [11],115 ± 12.9%
same,activity at 0.1 µM,[1]; [8],68 ± 1.5%
same,activity at 0.1 µM,[1]; [9],68 ± 1.2%
same,activity at 0.1 µM,[1]; [10],63 ± 0.8%
same,activity at 0.1 µM,[1]; [11],93 ± 5.5%
same,activity at 0.3 µM,[1]; [8],62 ± 0.8%
same,activity at 0.3 µM,[1]; [9],61 ± 0.9%
same,activity at 0.3 µM,[1]; [10],56 ± 0.8%
same,activity at 0.3 µM,[1]; [11],129 ± 10.9%
same,effect on APD90 (in words),"[1]; both FM and MM monolayers, concentration not given",significantly decreased
same,effect on contraction duration,[2]; [3],decreased
same,activity at 0.01 µM,[2]; [12],94 ± 5.2%
same,activity at 0.01 µM,[2]; [13],94 ± 1%
same,activity at 0.03 µM,[2]; [12],90 ± 8.3%
same,activity at 0.03 µM,[2]; [13],88 ± 4.6%
same,activity at 0.1 µM,[2]; [12],125 ± 17.9%
same,activity at 0.1 µM,[2]; [13],76 ± 2.8%
same,activity at 0.3 µM,[2]; [12],68 ± 8.5%
same,activity at 0.3 µM,[2]; [13],58 ± 1.6%
same,activity at 0.01 µM,[2]; [14],123 ± 14.4%
same,activity at 0.01 µM,[2]; [15],96 ± 2.3%
same,activity at 0.03 µM,[2]; [14],112 ± 11.7%
same,activity at 0.03 µM,[2]; [15],88 ± 2.3%
same,activity at 0.1 µM,[2]; [14],121 ± 16.1%
same,activity at 0.1 µM,[2]; [15],68 ± 2.7%
same,activity at 0.3 µM,[2]; [14],105 ± 14.9%
same,activity at 0.3 µM,[2]; [15],57 ± 1.8%
